According to patent US20150210729A1, “MACROLIDE DERIVATIVES, PREPARATION THEREOF AND THERAPEUTIC USE THEREOF” (priority 2012, published 2015):
In brackets after ≈: the same amount, converted by molar mass.

Columns and labels:
[1] = test system: Streptococcus pneumoniae; assay: ATP bioluminescence test, inhibition of bacterial growth of Streptococcus pneumoniae (IC80); assay type: cell-based; details: 80% inhibition of bacterial growth, ATP/luciferase readout, read-out: IC80 (μM) S. pneumoniae
Experimental: Measurement of the Inhibitory Activity (IC80) of the Compounds According to the Invention Towards Streptococcus pneumoniae
The test used is a bioluminescence test, the aim of which is to measure the inhibition of bacterial growth of Streptococcus pneumoniae by quantification of the amount of adenosine triphosphate (ATP). Specifically, ATP is a major and mandatory energy intermediate of very many reactions of cell metabolism which characterizes live media.
ATP quantification is performed at the end of the test by using an enzyme, luciferase, which, in the presence of ATP and of a specific substrate, luciferin, produces quantifiable light.
Thus, in the presence of luciferin and luciferase at […] concentrations, the value obtained in relative light units (RLU) will make it possible, by means of a calibration, to estimate the amount of ATP and thus deduce the number of live bacteria at the end of the incubation period.
Thus, the more the RLU value obtained at the end of the test tends towards zero, the more the product inhibits the total growth of bacteria.
The results (Table 3) are expressed in IC80.

[2] = test system: Mycobacterium tuberculosis H37Rv; assay: Alamar blue (MABA) test, MIC on Mycobacterium tuberculosis H37Rv; assay type: cell-based; details: minimum inhibitory concentration, Alamar blue, strain H37Rv, read-out: MIC (μM) MTb H37Rv

| SMILES | IC80 [1] [µM] | MIC [2] [µM] |
| --- | --- | --- |
| CON=C1C[C@@H](C)O[C@@H](O[C@@H]2[C@@H](C)[C@H](O[C@H]3C[C@@H](C)N(C)C[C@H](C)O3)[C@@H](C)C(=O)OC([C@@H](C)CO[C@@H]3O[C@H](C)[C@@H](O)[C@@H](OC)[C@H]3OC)[C@H](C)[C@@H](OC(=O)CC(C)C)[C@@H](C)C(=O)[C@@](C)(OC(=O)NCCNc3ccnc4cc(Cl)ccc34)C[C@@H]2C)[C@@H]1O (stereo partly drawn) [Compound 26] | 0.69 | 0.78 (≈ 0.965 µg/mL) |
| CON=C1C[C@@H](C)O[C@@H](O[C@@H]2[C@@H](C)[C@H](O[C@H]3CC(C)N(C4CC4)C[C@H](C)O3)[C@@H](C)C(=O)OC([C@@H](C)CO[C@@H]3O[C@H](C)[C@@H](O)[C@@H](OC)[C@H]3OC)[C@H](C)[C@@H](OC(=O)CC(C)C)[C@@H](C)C(=O)[C@@](C)(OC(=O)NCc3ccccc3)C[C@@H]2C)[C@@H]1O (stereo partly drawn) [Compound 35] | 1.81 | 0.36 (≈ 0.413 µg/mL) |
| CON=C1C[C@@H](C)O[C@@H](O[C@@H]2[C@@H](C)[C@H](O[C@H]3C[C@H](C)N(C)C[C@H](C)O3)[C@@H](C)C(=O)O[C@H]([C@@H](C)CO[C@@H]3O[C@H](C)[C@@H](O)[C@@H](OC)[C@H]3OC)[C@H](C)[C@@H](OC(=O)CC(C)C)[C@@H](C)C(=O)[C@@](C)(OC(=O)NC(C)(C)CNC(=O)c3cnc(O)cn3)C[C@@H]2C)[C@@H]1O [Compound 14] | 2.27 | 0.67 (≈ 0.821 µg/mL) |
